Where “and” joins values, the source holds several entries; their conditions need not be identical. Equal values may be shown once.
Key:
[1] = tested on: antiovalbumin antibodies; assay: Rate of antiovalbumin antibodies in guinea pigs three weeks after injection of ovalbumin in FIA emulsion; assay type: in vivo, Hartley guinea pigs
Method: In the two series of tests the results of which are indicated hereafter, the influence of the active principles of the drugs according to the invention on the antiovalbumin antibodies rate was studied under the following conditions.
(§1) Female Hartley guinea pigs of 300-350 g. were given in the plantar pad of each of the two rear paws an emulsion composed of equal parts of incomplete Freund's adjuvant and a physiological solution containing ovalbumin (5 mg/guinea pig) and the preparations to be tested. The Freund's incomplete adjuvant (FIA), the Freund's complete adjuvant (FCA) marketed by the DIFCO Company and N-acetylmuramyl-L-alanyl-D-isoglutamine were used as controls.
The rate of antibodies with respect to ovalbumin was determined three weeks later after the injection in the conditions which were indicated in the French patent Nr 71 41610 of Nov. 19, 1971; it is expressed in μg of the antigen-antibody precipitate per ml of serum at the point of equivalence.

[2] = tested on: delayed hypersensivity to ovalbumin; assay: Delayed hypersensitivity to ovalbumin (cutaneous reaction) in guinea pigs; assay type: in vivo, Hartley guinea pigs; conditions: 4 weeks after injection, 48 hours after 50 μg ovalbumine/animal sub-cutaneous
Method: as §1
In a second series of tests, the delayed hypersensivity to ovalbumin which produces a cutaneous reaction was measured four weeks after the injection; it is expressed by the diameter in millimetres of the erythema (E), of the induration (I) or of the necrosis (N), 48 hours after the sub-cutaneous injection of 50 micrograms of ovalbumin.

[3] = Table I, first series, 25 μg/animal + FIA, guinea pigs, 3 weeks after injection
[4] = Table II, second series, 25 μg/animal
[5] = Table II, second series, 100 μg/animal

SMILES	Antiovalbumin antibodies rates compared with animals which received Freund's incomplete adjuvant only (in words) ([1]; Table I)	Rate of antiovalbumin antibodies (individual animals) [1, 3]	Rate of antiovalbumin antibodies, mean values [1, 3]	Rate of antiovalbumin antibodies (individual animals) [1, 4]	Rate of antiovalbumin antibodies, mean values [1, 4]	Rate of antiovalbumin antibodies (individual animals) [1, 5]	Rate of antiovalbumin antibodies, mean values [1, 5]	Inhibition of the adjuvant action of Mur-N-Ac-L-Ala-D-Glu-α-NH2 when administered simultaneously (in words) ([1]; Table II, tests 5 and 6 versus test 3)	Delayed hypersensibility, cutaneous reaction (type letter not given) ([2]; 25 μg/animal)	Delayed hypersensibility, diameter of the induration (I) ([2]; 25 μg/animal)	Delayed hypersensibility, cutaneous reaction (type letter not given) ([2]; 100 μg/animal)	Delayed hypersensibility, diameter of the erythema (E) ([2]; 100 μg/animal)
CC(=O)NC1C(O)OC(CO)C(O)C1OC(C)C(=O)NC(C)C(=O)NC(CCC(=O)O)C(N)=O [Mur-N-Ac-D-Ala-D-Glu-,α-NH2, 2-(2-acetamido-2-deoxy-3-O-D-glucopyranose)-D-propionyl-D-alanyl-D-isoglutamine]	much lower	200 μg proteins / ml serum and 800 μg proteins / ml serum and 900 μg proteins / ml serum and 1300 μg proteins / ml serum and 1900 μg proteins / ml serum and 1500 μg proteins / ml serum	1068 μg proteins / ml serum	1720 μg proteins/ ml serum and 660 μg proteins/ ml serum and 3600 μg proteins/ ml serum and 1800 μg proteins/ ml serum and 1760 μg proteins/ ml serum	1890 μg proteins/ ml serum	950 μg proteins/ ml serum and 1000 μg proteins/ ml serum and 1200 μg proteins/ ml serum	1050 μg proteins/ ml serum	strongly inhibits the adjuvant action	0 millimetres	12 millimetres	0 millimetres	5 millimetres
CC(=O)N[C@H]1C(O)O[C@H](CO)[C@@H](O)[C@@H]1O[C@H](C)C(=O)N[C@@H](C)C(=O)N[C@@H](CCC(=O)O)C(N)=O (stereo partly drawn) [Mur-N-Ac-L-Ala-L-Glu-,α-NH2, 2-(2-acetamido-2-deoxy-3-D-glucopyranosyl)-D-propionyl-L-Ala-L-Glu-α-NH2]	much lower	1140 μg proteins / ml serum and 3400 μg proteins / ml serum and 4200 μg proteins / ml serum and 1700 μg proteins / ml serum and 800 μg proteins / ml serum and 700 μg proteins / ml serum and 2800 μg proteins / ml serum	2104 μg proteins / ml serum									

Reference: patent US4101649A, “Hydrosoluble agents having non specific immunodepressive properties” (Agence Nationale de Valorisation de la Recherche (ANVAR), priority 1975, dated 1978)
